Measured values published in publication PMC5564600 (Oncotarget, 2017).

What was measured:
Assay in all cases: biochemical
Type in all cases: binding
[1] = biological target: T1, panel of 442 kinases (Homo sapiens, UniProt P07333); settings: CSF1R; for remaining activity at 1 µM: read-out: % of control at 1 µM
T1 construct: purchased Ambit Biosciences (scanMAXX KINOMEscan)

[2] = biological target: T2, panel of 442 kinases (Homo sapiens, UniProt Q14164); settings: kinase IKK-epsilon; for remaining activity at 1 µM: read-out: % of control at 1 µM
T2 construct: purchased Ambit Biosciences (scanMAXX KINOMEscan)
T2 sequence (Q14164 1-716): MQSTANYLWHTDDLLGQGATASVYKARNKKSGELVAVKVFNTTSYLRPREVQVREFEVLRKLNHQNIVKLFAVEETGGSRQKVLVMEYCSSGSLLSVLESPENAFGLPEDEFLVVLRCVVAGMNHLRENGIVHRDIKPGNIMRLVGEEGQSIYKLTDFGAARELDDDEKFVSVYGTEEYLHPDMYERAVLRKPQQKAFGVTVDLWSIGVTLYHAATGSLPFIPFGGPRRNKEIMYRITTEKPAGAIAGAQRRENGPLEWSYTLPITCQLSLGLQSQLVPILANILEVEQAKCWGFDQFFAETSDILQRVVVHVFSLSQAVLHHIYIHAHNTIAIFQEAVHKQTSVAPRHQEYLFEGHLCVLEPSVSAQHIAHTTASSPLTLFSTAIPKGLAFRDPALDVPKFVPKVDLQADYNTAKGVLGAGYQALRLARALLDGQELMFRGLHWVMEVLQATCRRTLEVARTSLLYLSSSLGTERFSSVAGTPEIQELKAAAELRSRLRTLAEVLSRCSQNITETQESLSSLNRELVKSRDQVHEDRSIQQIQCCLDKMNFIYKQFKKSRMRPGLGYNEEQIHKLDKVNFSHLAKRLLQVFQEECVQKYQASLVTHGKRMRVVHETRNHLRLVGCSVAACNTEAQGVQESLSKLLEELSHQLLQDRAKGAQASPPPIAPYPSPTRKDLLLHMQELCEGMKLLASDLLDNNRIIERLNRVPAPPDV

[3] = biological target: T3, panel of 442 kinases (Homo sapiens, UniProt P36897); settings: kinase TGFBR1; for remaining activity at 1 µM: read-out: TGFBR1 (% of control at 1 µM)
T3 construct: purchased Ambit Biosciences (scanMAXX KINOMEscan)
T3 sequence (P36897 34-503): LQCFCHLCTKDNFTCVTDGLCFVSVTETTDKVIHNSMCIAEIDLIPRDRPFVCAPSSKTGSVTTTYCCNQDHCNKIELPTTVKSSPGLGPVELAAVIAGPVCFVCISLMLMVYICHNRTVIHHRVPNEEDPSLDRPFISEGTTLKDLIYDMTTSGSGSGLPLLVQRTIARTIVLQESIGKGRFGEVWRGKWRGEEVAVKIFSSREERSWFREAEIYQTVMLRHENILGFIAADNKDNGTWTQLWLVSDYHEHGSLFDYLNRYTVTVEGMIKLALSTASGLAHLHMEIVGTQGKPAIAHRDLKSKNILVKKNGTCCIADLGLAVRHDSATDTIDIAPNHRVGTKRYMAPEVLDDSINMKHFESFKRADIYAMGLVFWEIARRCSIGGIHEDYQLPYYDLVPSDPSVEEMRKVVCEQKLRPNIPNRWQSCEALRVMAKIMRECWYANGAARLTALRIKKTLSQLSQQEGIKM

[4] = biological target: T4, panel of 442 kinases (Homo sapiens, UniProt P43405); settings: kinase SYK; for remaining activity at 1 µM: read-out: SYK (% of control at 1 µM)
T4 construct: purchased Ambit Biosciences (scanMAXX KINOMEscan)

[5] = biological target: T5, panel of 442 kinases (Homo sapiens, UniProt Q13470); settings: kinase TNK1; for remaining activity at 1 µM: read-out: TNK1 (% of control at 1 µM)
T5 construct: purchased Ambit Biosciences (scanMAXX KINOMEscan)
T5 sequence (Q13470 1-666): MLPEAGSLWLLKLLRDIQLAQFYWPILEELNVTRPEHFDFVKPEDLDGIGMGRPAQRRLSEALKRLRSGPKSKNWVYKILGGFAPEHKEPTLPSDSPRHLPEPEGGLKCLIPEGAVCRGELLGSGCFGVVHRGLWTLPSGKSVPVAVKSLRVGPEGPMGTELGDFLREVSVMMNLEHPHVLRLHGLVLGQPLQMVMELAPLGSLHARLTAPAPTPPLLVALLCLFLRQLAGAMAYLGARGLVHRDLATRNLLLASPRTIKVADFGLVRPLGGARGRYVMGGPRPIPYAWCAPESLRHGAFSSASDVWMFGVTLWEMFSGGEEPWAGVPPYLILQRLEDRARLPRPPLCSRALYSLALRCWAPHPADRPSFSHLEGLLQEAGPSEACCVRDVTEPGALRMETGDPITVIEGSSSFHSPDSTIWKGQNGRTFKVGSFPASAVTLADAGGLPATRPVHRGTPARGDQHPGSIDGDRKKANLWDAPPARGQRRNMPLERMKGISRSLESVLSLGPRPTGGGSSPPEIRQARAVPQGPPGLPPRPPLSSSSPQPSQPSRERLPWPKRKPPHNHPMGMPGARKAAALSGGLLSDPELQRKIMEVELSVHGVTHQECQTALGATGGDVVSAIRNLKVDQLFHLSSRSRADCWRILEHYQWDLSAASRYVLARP

[6] = biological target: T6, panel of 442 kinases (Homo sapiens, UniProt P49674); settings: CSNK1E; for remaining activity at 1 µM: read-out: % of control at 1 µM
T6 construct: purchased Ambit Biosciences (scanMAXX KINOMEscan)

[7] = biological target: T7, panel of 442 kinases (Homo sapiens, UniProt O43318); settings: kinase TAK1; for remaining activity at 1 µM: read-out: TAK1 (% of control at 1 µM)
T7 construct: purchased Ambit Biosciences (scanMAXX KINOMEscan)
T7 sequence (O43318 1-606): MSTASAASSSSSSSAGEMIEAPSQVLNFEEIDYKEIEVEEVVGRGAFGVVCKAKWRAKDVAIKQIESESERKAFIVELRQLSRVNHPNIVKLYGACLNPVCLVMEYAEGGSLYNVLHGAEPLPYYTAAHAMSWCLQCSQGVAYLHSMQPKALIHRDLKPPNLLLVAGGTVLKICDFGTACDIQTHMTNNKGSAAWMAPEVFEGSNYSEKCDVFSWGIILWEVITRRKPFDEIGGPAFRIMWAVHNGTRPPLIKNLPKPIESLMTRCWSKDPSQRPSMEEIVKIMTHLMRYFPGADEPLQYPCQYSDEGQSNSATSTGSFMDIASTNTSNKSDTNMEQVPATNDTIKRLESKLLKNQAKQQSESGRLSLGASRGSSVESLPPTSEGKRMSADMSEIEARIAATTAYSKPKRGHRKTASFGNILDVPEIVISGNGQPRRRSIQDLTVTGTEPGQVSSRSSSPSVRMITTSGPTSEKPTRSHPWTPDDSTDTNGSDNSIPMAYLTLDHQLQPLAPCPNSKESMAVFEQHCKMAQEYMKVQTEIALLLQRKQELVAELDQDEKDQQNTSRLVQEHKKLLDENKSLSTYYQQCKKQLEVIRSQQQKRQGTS

[8] = 10 µM, read-out: % of control at 10 µM

T6 sequence (P49674 whole entry): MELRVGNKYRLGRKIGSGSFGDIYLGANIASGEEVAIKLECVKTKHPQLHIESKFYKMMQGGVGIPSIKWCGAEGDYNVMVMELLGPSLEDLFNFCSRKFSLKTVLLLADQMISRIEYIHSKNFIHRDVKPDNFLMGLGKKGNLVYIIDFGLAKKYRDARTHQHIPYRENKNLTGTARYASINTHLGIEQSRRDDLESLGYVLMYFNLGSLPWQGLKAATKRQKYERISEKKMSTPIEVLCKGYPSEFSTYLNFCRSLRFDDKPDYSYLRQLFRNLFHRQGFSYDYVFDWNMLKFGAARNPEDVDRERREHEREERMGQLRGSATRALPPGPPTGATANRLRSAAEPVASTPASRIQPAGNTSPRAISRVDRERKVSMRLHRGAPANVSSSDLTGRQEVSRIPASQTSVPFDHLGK
T1 sequence (P07333 20-972): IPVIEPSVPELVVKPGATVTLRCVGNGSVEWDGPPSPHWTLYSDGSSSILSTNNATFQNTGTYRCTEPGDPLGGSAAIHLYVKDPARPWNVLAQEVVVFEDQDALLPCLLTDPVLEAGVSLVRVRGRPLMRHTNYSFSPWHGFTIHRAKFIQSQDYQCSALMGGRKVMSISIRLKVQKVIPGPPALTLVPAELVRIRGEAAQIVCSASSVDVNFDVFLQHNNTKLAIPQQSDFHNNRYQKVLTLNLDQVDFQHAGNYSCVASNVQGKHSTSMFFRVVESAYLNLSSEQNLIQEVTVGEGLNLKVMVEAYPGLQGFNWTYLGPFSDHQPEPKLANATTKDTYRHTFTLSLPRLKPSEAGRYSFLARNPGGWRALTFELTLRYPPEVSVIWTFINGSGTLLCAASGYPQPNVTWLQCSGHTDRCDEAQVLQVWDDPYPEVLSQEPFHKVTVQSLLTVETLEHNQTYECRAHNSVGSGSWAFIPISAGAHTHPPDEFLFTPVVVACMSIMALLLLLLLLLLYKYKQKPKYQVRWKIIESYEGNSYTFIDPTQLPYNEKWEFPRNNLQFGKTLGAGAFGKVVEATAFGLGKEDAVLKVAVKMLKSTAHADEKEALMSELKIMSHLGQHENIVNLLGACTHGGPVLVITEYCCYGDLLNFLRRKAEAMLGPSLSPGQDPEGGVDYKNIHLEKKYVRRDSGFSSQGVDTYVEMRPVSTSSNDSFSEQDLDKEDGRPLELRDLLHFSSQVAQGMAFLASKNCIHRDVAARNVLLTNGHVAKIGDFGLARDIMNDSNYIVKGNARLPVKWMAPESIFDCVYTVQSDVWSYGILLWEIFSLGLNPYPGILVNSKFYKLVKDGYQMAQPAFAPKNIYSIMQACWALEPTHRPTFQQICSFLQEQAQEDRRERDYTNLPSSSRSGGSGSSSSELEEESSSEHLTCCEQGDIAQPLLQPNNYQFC

Structure (SMILES) | remaining activity at 1 µM [1] | remaining activity at 10 µM [1, 8] | remaining activity at 1 µM [2] | remaining activity at 10 µM [2, 8] | remaining activity at 1 µM [3] | remaining activity at 10 µM ([3]; 10 µM, read-out: TGFBR1 (% of control at 10 µM)) | remaining activity at 1 µM [4] | remaining activity at 10 µM ([4]; 10 µM, read-out: SYK (% of control at 10 µM)) | remaining activity at 1 µM [5] | remaining activity at 10 µM ([5]; 10 µM, read-out: TNK1 (% of control at 10 µM)) | remaining activity at 1 µM [6] | remaining activity at 10 µM [6, 8] | remaining activity at 1 µM [7] | remaining activity at 10 µM ([7]; 10 µM, read-out: TAK1 (% of control at 10 µM))
Nc1cc(C(F)(F)F)c(-c2cc(N3CCOCC3)nc(N3CCOCC3)n2)cn1 [Buparlisib] | 85% | 40% | 78% | 100% | 100% | 100% | 98% | 100% | 100% | 100% | 100% | 72% | 100% | 100%
Cn1c(=O)n(-c2ccc(C(C)(C)C#N)cc2)c2c3cc(-c4cnc5ccccc5c4)ccc3ncc21 [Dactolisib, 2-methyl-2-[4-(3-methyl-2-oxo-8-quinolin-3-yl-2,3-dihydroimidazo[4,5-c]quinolin-1-yl)-phenyl] propionitrile] |  |  | 100% |  | 89% |  | 100% |  | 88% |  | 54% |  | 55% | 
COc1ncc(-c2ccc3nccc(-c4ccnnc4)c3c2)cc1NS(=O)(=O)c1ccc(F)cc1F [Omipalisib] | 100% |  | 100% |  | 100% |  | 100% |  | 100% |  | 100% |  | 82% | 
FC(F)c1nc2ccccc2n1-c1nc(N2CCOCC2)nc(N2CCOCC2)n1 [ZSTK474, 2-(difluoromethyl)-1-[4,6-di(4-morpholinyl)-1,3,5-triazin-2-yl]-1H-benzimidazole] | 90% |  | 100% |  | 79% |  | 100% |  | 86% |  | 100% |  | 68% | 
